Reference: patent US9790210B2, “N-(monocyclic aryl),N'-pyrazolyl-urea, thiourea, guanidine and cyanoguanidine compounds as TrkA kinase inhibitors” (Array BioPharma Inc., priority 2012, dated 2017)

Tests used:
Assay type in all cases: biochemical
off-target kinases = test: KinaseProfiler off-target kinase profiling, full kinase panel; conditions: 10 μM; panel of about 230 kinases
Procedure: (§1) A representative compound (Example 15) of the invention was tested for off-target kinase activity at a concentration of 10 μM by Millipore, Inc. in their KinaseProfiler™ service against all the kinases available in their full kinase panel. The compound was run in duplicate at a concentration of ATP near the Km for each individual kinase according to Millipore's specifications. The results are shown in Table B. Data are reported as percent of control (POC) and are the average of the two replicates.
Such a drug profile would represent a safer approach to treating pain, inflammation, cancer and certain skin diseases than has been previously reported.

PKCbetaII = target: T1, PKCbetaII (Homo sapiens, UniProt P05771); test: KinaseProfiler; conditions: 10 μM, ATP near Km
T1 construct: purchased Millipore, Inc. (KinaseProfiler service)
Outline: (§2)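 Off-target activity was measured at a single compound concentration of 10 μM, run in duplicate with ATP near the Km of each kinase. Values are percent of control (POC), averaged over the two replicates.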

DAPK2 = target: T2, DAPK2 (Homo sapiens, UniProt Q9UIK4); test: KinaseProfiler; conditions: 10 μM, ATP near Km
T2 construct: purchased Millipore, Inc. (KinaseProfiler service)
Outline: as §2

TrkB = target: T3, TrkB (Homo sapiens, UniProt Q16620); test: KinaseProfiler; conditions: 10 μM, ATP near Km
T3 construct: purchased Millipore, Inc. (KinaseProfiler service)
Outline: as §2

PKCepsilon = target: T4, PKCepsilon (Homo sapiens, UniProt Q02156); test: KinaseProfiler; conditions: 10 μM, ATP near Km
T4 construct: purchased Millipore, Inc. (KinaseProfiler service)
Outline: as §2

GSK3alpha = target: T5, GSK3alpha (Homo sapiens, UniProt P49840); test: KinaseProfiler; conditions: 10 μM, ATP near Km
T5 construct: purchased Millipore, Inc. (KinaseProfiler service)
Outline: as §2

MEK1 = target: T6, MEK1 (Homo sapiens, UniProt Q02750); test: KinaseProfiler; conditions: 10 μM, ATP near Km
T6 construct: purchased Millipore, Inc. (KinaseProfiler service)
Outline: as §2

Fgr = target: T7, Fgr (Homo sapiens, UniProt P09769); test: KinaseProfiler; conditions: 10 μM, ATP near Km
T7 construct: purchased Millipore, Inc. (KinaseProfiler service)
Outline: as §2

MICK4_m = target: T8, MICK4_m (Mus musculus, UniProt P47809); test: KinaseProfiler; conditions: 10 μM, ATP near Km
T8 construct: purchased Millipore, Inc. (KinaseProfiler service)
Outline: as §2

MSK2 = target: T9, MSK2 (Homo sapiens, UniProt O75676); test: KinaseProfiler; conditions: 10 μM, ATP near Km
T9 construct: purchased Millipore, Inc. (KinaseProfiler service)
Outline: as §2

MAPKAP-K5 = target: T10, MAPKAP-K5 (Homo sapiens, UniProt Q8IW41); test: KinaseProfiler; conditions: 10 μM, ATP near Km
T10 construct: purchased Millipore, Inc. (KinaseProfiler service)
Outline: as §2

CAMK4 = target: T11, CAMK4 (Homo sapiens, UniProt Q16566); test: KinaseProfiler; conditions: 10 μM, ATP near Km
T11 construct: purchased Millipore (KinaseProfiler service)
Outline: as §2

PRK2 = target: T12, PRK2 (Homo sapiens, UniProt Q16513); test: KinaseProfiler; conditions: 10 μM, ATP near Km
T12 construct: purchased Millipore, Inc. (KinaseProfiler service)
Outline: as §2

CK1delta = target: T13, CK1delta (Homo sapiens, UniProt P48730); test: KinaseProfiler; conditions: 10 μM, ATP near Km
T13 construct: purchased Millipore, Inc. (KinaseProfiler service)
Outline: as §2

ROCK-I = target: T14, ROCK-I (Homo sapiens, UniProt Q13464); test: KinaseProfiler; conditions: 10 μM, ATP near Km
T14 construct: purchased Millipore, Inc. (KinaseProfiler service)
Outline: as §2

TAO3 = target: T15, TAO3 (Homo sapiens, UniProt Q9H2K8); test: KinaseProfiler; conditions: 10 μM, ATP near Km
T15 construct: purchased Millipore, Inc. (KinaseProfiler service)
Outline: as §2

Met = target: T16, Met (Homo sapiens, UniProt P08581); test: KinaseProfiler; conditions: 10 μM, ATP near Km
T16 construct: purchased Millipore, Inc. (KinaseProfiler service)
Outline: as §2

Fer = target: T17, Fer (Homo sapiens, UniProt P16591); test: KinaseProfiler; conditions: 10 μM, ATP near Km
T17 construct: purchased Millipore, Inc. (KinaseProfiler service)
Outline: as §2

PKD1 = target: T18, PKD1 (Homo sapiens, UniProt Q15139); test: KinaseProfiler; conditions: 10 μM, ATP near Km
T18 construct: purchased Millipore, Inc. (KinaseProfiler service)
Outline: as §2

ALK = target: T19, ALK (Homo sapiens, UniProt Q9UM73); test: KinaseProfiler; conditions: 10 μM, ATP near Km
T19 construct: purchased Millipore (KinaseProfiler service)
Outline: as §2

CK1gamma3 = target: T20, CK1gamma3 (Homo sapiens, UniProt Q9Y6M4); test: KinaseProfiler; conditions: 10 μM, ATP near Km
T20 construct: purchased Millipore, Inc. (KinaseProfiler service)
Outline: as §2

LOK = target: T21, LOK (Homo sapiens, UniProt O94804); test: KinaseProfiler; conditions: 10 μM, ATP near Km
T21 construct: purchased Millipore, Inc. (KinaseProfiler service)
Outline: as §2

CAMK1 = target: T22, CAMK1 (Homo sapiens, UniProt Q14012); test: KinaseProfiler; conditions: 10 μM, ATP near Km
T22 construct: purchased Millipore (KinaseProfiler service)
Outline: as §2

MST3 = target: T23, MST3 (Homo sapiens, UniProt Q9Y6E0); test: KinaseProfiler; conditions: 10 μM, ATP near Km
T23 construct: purchased Millipore, Inc. (KinaseProfiler service)
Outline: as §2

MKNK2 = target: T24, MKNK2 (Homo sapiens, UniProt Q9HBH9); test: KinaseProfiler; conditions: 10 μM, ATP near Km
T24 construct: purchased Millipore, Inc. (KinaseProfiler service)
Outline: as §2

MST1 = target: T25, MST1 (Homo sapiens, UniProt Q13043); test: KinaseProfiler; conditions: 10 μM, ATP near Km
T25 construct: purchased Millipore, Inc. (KinaseProfiler service)
Outline: as §2

MELK = target: T26, MELK (Homo sapiens, UniProt Q14680); test: KinaseProfiler; conditions: 10 μM, ATP near Km
T26 construct: purchased Millipore, Inc. (KinaseProfiler service)
Outline: as §2

JAK2 = target: T27, JAK2 (Homo sapiens, UniProt O60674); test: KinaseProfiler; conditions: 10 μM, ATP near Km
T27 construct: purchased Millipore, Inc. (KinaseProfiler service)
Outline: as §2

TAO2 = target: T28, TAO2 (Homo sapiens, UniProt Q9UL54); test: KinaseProfiler; conditions: 10 μM, ATP near Km
T28 construct: purchased Millipore, Inc. (KinaseProfiler service)
Outline: as §2

Ron = target: T29, Ron (Homo sapiens, UniProt Q04912); test: KinaseProfiler; conditions: 10 μM, ATP near Km
T29 construct: purchased Millipore, Inc. (KinaseProfiler service)
Outline: as §2

EphB1 = target: T30, EphB1 (Homo sapiens, UniProt P54762); test: KinaseProfiler; conditions: 10 μM, ATP near Km
T30 construct: purchased Millipore, Inc. (KinaseProfiler service)
Outline: as §2

AKT3 = target: T31, AKT3 (Homo sapiens, UniProt Q9Y243); test: KinaseProfiler; conditions: 10 μM, ATP near Km
T31 construct: purchased Millipore (KinaseProfiler service)
Outline: as §2

DYRK2 = target: T32, DYRK2 (Homo sapiens, UniProt Q92630); test: KinaseProfiler; conditions: 10 μM, ATP near Km
T32 construct: purchased Millipore, Inc. (KinaseProfiler service)
Outline: as §2

DDR2 = target: T33, DDR2 (Homo sapiens, UniProt Q16832); test: KinaseProfiler; conditions: 10 μM, ATP near Km
T33 construct: purchased Millipore, Inc. (KinaseProfiler service)
Outline: as §2

PRKG1beta = target: T34, PRKG1beta (Homo sapiens, UniProt Q13976); test: KinaseProfiler; conditions: 10 μM, ATP near Km
T34 construct: purchased Millipore, Inc. (KinaseProfiler service)
Outline: as §2

Hck = target: T35, Hck (Homo sapiens, UniProt P08631); test: KinaseProfiler; conditions: 10 μM, ATP near Km
T35 construct: purchased Millipore, Inc. (KinaseProfiler service)
Outline: as §2

PKCgamma = target: T36, PKCgamma (Homo sapiens, UniProt P05129); test: KinaseProfiler; conditions: 10 μM, ATP near Km
T36 construct: purchased Millipore, Inc. (KinaseProfiler service)
Outline: as §2

TrkA = TrkA (Homo sapiens, UniProt P04629); test: KinaseProfiler; set-up: purchased Millipore, Inc. (KinaseProfiler service); conditions: 10 μM, ATP near Km
Procedure: as §1

T13 sequence (P48730 whole entry): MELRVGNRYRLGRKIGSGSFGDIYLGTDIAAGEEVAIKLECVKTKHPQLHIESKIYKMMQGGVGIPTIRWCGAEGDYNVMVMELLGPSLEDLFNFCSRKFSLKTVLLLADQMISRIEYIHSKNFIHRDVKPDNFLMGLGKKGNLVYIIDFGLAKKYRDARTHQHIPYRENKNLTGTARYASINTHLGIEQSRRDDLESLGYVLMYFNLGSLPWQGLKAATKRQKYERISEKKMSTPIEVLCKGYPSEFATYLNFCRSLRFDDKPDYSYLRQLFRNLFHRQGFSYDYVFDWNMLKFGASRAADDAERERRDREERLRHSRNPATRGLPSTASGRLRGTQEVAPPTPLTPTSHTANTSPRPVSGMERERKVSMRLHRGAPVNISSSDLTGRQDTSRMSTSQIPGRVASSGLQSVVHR
T33 sequence (Q16832 22-855): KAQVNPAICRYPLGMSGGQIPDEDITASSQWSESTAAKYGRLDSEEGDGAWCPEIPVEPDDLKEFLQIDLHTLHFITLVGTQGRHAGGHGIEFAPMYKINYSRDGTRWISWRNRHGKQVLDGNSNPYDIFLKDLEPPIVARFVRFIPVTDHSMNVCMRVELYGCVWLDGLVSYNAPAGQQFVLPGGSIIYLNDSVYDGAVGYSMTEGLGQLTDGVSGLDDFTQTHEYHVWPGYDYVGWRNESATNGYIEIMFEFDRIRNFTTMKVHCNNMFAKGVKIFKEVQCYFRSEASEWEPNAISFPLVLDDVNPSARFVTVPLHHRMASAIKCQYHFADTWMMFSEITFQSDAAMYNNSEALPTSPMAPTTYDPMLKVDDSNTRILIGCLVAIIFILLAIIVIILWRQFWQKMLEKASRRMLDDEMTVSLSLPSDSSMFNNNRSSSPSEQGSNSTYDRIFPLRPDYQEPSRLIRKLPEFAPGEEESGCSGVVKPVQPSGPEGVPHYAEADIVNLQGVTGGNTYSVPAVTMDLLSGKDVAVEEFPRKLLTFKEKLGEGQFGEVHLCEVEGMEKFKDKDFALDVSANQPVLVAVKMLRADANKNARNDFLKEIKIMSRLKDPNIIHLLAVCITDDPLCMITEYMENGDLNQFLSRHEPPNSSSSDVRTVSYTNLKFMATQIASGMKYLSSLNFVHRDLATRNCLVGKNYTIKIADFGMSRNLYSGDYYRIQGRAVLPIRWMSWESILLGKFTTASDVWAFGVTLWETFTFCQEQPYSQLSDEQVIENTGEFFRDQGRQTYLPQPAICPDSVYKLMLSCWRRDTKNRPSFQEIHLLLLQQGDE
T8 sequence (P47809 whole entry): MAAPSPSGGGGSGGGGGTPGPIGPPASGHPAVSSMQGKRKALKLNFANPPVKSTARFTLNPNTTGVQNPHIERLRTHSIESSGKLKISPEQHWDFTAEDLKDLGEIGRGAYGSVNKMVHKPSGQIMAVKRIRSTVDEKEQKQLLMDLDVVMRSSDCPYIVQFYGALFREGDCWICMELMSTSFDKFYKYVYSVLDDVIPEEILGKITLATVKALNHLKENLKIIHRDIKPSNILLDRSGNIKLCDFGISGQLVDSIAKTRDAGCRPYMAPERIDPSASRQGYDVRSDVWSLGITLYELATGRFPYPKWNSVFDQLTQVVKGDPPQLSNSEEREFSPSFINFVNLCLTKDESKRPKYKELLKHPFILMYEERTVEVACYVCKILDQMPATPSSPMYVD
T16 sequence (P08581 25-1390): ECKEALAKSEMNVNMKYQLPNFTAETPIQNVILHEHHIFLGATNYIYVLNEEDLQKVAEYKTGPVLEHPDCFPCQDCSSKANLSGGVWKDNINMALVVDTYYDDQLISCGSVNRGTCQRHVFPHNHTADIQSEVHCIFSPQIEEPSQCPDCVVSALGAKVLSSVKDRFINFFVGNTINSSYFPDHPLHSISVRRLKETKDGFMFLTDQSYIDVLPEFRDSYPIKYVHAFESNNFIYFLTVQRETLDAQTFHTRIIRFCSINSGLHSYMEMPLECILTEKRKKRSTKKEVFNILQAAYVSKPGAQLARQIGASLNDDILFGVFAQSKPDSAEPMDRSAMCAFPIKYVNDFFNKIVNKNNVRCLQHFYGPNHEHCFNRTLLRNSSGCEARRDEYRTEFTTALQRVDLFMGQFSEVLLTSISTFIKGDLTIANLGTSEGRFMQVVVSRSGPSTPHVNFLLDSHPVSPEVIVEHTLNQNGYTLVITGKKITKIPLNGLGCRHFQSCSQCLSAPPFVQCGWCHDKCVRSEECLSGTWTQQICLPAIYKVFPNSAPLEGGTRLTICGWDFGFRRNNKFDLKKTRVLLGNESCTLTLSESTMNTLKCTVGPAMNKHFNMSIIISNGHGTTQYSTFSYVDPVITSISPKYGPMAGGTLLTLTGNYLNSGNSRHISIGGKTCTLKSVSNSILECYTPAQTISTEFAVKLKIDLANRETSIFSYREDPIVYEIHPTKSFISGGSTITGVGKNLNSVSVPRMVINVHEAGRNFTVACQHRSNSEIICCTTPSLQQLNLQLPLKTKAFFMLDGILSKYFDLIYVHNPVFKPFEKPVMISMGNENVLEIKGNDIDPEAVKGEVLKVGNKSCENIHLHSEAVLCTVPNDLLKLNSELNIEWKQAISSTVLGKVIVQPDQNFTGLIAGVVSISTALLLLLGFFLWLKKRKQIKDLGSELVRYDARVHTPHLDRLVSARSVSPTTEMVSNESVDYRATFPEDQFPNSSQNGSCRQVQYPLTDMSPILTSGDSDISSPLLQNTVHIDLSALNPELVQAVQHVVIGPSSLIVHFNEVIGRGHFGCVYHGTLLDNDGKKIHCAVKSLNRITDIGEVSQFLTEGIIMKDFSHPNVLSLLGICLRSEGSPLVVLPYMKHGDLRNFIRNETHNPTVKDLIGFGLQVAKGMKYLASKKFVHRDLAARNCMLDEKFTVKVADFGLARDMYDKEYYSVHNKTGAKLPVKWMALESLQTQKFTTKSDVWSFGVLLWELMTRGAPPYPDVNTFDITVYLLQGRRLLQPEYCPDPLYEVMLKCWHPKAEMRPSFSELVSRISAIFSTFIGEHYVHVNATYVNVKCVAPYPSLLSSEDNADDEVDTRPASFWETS
T12 sequence (Q16513 whole entry): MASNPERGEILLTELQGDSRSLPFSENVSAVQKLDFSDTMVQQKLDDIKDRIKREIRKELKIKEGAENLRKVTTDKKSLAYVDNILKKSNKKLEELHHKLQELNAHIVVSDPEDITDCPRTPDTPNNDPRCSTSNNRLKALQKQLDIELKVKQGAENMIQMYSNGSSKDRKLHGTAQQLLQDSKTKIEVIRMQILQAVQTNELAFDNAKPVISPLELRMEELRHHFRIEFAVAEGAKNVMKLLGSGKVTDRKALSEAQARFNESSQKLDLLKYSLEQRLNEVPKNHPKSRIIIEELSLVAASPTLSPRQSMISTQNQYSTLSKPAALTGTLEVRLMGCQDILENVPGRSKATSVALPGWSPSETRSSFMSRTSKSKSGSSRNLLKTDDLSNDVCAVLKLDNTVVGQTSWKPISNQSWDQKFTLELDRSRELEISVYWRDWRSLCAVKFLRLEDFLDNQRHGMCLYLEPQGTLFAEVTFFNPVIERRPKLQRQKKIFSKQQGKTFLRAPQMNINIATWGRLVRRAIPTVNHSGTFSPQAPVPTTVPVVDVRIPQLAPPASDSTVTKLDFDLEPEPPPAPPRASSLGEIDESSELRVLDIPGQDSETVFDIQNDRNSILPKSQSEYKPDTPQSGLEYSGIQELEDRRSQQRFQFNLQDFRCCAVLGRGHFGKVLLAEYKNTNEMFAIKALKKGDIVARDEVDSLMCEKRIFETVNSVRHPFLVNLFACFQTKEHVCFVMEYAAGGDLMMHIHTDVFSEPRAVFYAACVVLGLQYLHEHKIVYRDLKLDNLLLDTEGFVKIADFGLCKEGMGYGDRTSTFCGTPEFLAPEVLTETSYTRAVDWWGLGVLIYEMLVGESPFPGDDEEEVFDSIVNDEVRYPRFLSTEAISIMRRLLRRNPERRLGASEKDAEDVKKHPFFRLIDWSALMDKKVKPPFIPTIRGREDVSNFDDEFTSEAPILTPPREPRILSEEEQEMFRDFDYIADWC
T2 sequence (Q9UIK4 whole entry): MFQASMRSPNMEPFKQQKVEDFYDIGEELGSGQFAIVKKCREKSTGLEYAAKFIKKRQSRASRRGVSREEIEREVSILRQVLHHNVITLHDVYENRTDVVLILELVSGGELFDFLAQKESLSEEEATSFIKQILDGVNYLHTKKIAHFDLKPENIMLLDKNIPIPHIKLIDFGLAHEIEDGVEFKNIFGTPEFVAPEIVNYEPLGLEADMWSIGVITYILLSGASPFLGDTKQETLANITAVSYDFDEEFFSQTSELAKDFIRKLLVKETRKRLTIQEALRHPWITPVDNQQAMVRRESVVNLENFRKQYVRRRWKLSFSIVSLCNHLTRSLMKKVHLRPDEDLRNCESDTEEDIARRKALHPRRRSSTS

SMILES: COCCCc1cc(Cl)c(Cl)cc1NC(=O)Nc1c(C)c(-c2cnn(C)c2)nn1-c1ccccc1 [Example 15, 1-(4,5-dichloro-2-(3-methoxypropyl)phenyl)-3-(1′,4-dimethyl-1-phenyl-1H,1′H-[3,4′-bipyrazol]-5-yl)urea]
- off-target kinase activity / selectivity for TrkA versus other kinases in the panel (off-target kinases): largely inactive against off-target kinases
- Avg POC (PKCbetaII): 99 POC
- Avg POC (DAPK2): 104.5 POC
- Avg POC (TrkB): 105 POC
- Avg POC (PKCepsilon): 97 POC
- Avg POC (GSK3alpha): 131 POC
- Avg POC (MEK1): 121.5 POC
- Avg POC (Fgr): 118 POC
- Avg POC (MICK4_m): 137.5 POC
- Avg POC (MSK2): 147 POC
- Avg POC (MAPKAP-K5): 92 POC
- Avg POC (CAMK4): 132 POC
- Avg POC (PRK2): 101.5 POC
- Avg POC (CK1delta): 111.5 POC
- Avg POC (ROCK-I): 117.5 POC
- Avg POC (TAO3): 95 POC
- Avg POC (Met): 110.5 POC
- Avg POC (Fer): 99 POC
- Avg POC (PKD1): 113.5 POC
- Avg POC (ALK): 105 POC
- Avg POC (CK1gamma3): 112.5 POC
- Avg POC (LOK): 135 POC
- Avg POC (CAMK1): 96 POC
- Avg POC (MST3): 137 POC
- Avg POC (MKNK2): 106 POC
- Avg POC (MST1): 94.5 POC
- Avg POC (MELK): 142.5 POC
- Avg POC (JAK2): 111.5 POC
- Avg POC (TAO2): 126 POC
- Avg POC (Ron): 108.5 POC
- Avg POC (EphB1): 130 POC
- Avg POC (AKT3): 119.5 POC
- Avg POC (DYRK2): 93.5 POC
- Avg POC (DDR2): 104.5 POC
- Avg POC (PRKG1beta): 130 POC
- Avg POC (Hck): 89 POC
- Avg POC (PKCgamma): 99.5 POC
- Avg POC (TrkA): 0 POC
